In BindingDB's records for doi:10.1021/jm00093a008 (Technical University of Denmark, 1992):

How the values were obtained:
[1] = Concentration inhibiting Clostridium histolyticum collagenase.
[2] = as above; remark: listed apart in the source

## COC1C(O[C@@H]2c3c(cc4c(c3O)C(=O)c3c(O)cccc3C4=O)C(=O)[C@@](C)(O)[C@H]2OC)OC(C)C(O)C1O (stereo not given in full)
[1]
  IC50: 0.37 µM

## COC1C(O[C@@H]2c3c(cc4c(c3O)C(=O)c3c(O)cccc3C4=O)C(=O)[C@@](C)(O)[C@H]2OC)OC(C)C(OC(C)=O)C1OC(C)=O (stereo not given in full)
[1]
  IC50: > 100 µM

## CCOP(=O)(OCC)O[C@]1(C)C(=O)c2cc3c(c(O)c2[C@@H](OC2OC(C)C(O)C(O)C2OC)[C@@H]1OC)C(=O)c1c(O)cccc1C3=O (stereo not given in full)
[1]
  IC50: 0.22 µM

## COC1C(O[C@@H]2c3c(cc4c(c3O)C(=O)c3c(O)cccc3C4=O)C(=O)[C@@](C)(O)[C@H]2OC)OC(C)C(O)C1O[Si](C)(C)C(C)(C)C (stereo not given in full)
[1]
  IC50: 17 µM

## COC1C(O[C@@H]2c3c(cc4c(c3O)C(=O)c3c(O)c(N(C)C)cc(N(C)C)c3C4=O)C(=O)[C@@](C)(O)[C@H]2OC)OC(C)C(O)C1O (stereo not given in full)
[1]
  IC50: > 100 µM

## COC1C(C)OC(O[C@@H]2c3c(cc4c(c3O)C(=O)c3c(O)cccc3C4=O)C(=O)[C@@](C)(O)[C@H]2OC)C(OC)C1OC (stereo not given in full)
[1]
  IC50: 0.67 µM

## CC[C@@]1(O)C[C@H](O[C@H]2C[C@H](N(C)C)[C@H](O[C@H]3C[C@H](O)[C@H](O[C@H]4CCC(=O)[C@H](C)O4)[C@H](C)O3)[C@H](C)O2)c2c(cc3c(c2O)C(=O)c2c(O)cccc2C3=O)[C@H]1C(=O)OC [ACLACINOMYCIN A]
[2]
  IC50: 9.9 µM

## COC1C(O[C@@H]2c3c(cc4c(c3O)C(=O)c3c(O)cccc3C4=O)C(=O)[C@](C)(O)[C@H]2OC)OC(C)C(O)C1O (stereo not given in full)
[1]
  IC50: 3 µM

## CO[C@H]1[C@H](O)c2c(cc3c(c2O)C(=O)c2c(O)cccc2C3=O)C(=O)[C@@]1(C)O
[1]
  IC50: 19 µM

## COC1C(O[C@@H]2c3c(cc4c(c3O)C(=O)c3c(ccc(N(C)C)c3O)C4=O)C(=O)[C@@](C)(O)[C@H]2OC)OC(C)C(O)C1O (stereo not given in full)
[1]
  IC50: 2 µM
